Assay results taken from patent publication US9982019B2, “Glycopeptide compound or pharmaceutical salt thereof and method for preparing same, and pharmaceutical compositions and applications thereof” (priority 2012, dated 2018).
Counter-ions that a name gives are not always drawn.

Tests used:
[1] = test system: Feces enterococci (VSE clinical isolates: MEFA 0039); assay: In vitro antibacterial activity, agar two times dilution method, MIC; assay type: cell-based; details: for MIC Values of Compounds, Enterococci: agar dilution, VSE clinical isolate MEFA 0039
Excerpt: (§1) Testing results of in vitro antibacterial activity of some target compounds of the present invention are as follows:
(§2) Drugs: firstly being dissolved in DMSO, and then being diluted to an appropriate concentration with sterile water, and afterwards successively being diluted for twice.
(§3) Determination: referencing the standard of CSSI 2008 version, using a agar two times dilution method, determine the minimum inhibitory concentration (MIC values).
(§4) Feces enterococci (VSE clinical isolates: MEFA 0039); Streptococcus pneumoniae (PISP: ATCC 49619).
(§5) 3. Positive Control Drug is Vancomycin Hydrochloride.

[2] = test system: Streptococcus pneumoniae (PISP: ATCC 49619); assay: as above; assay type: cell-based; details: for MIC Values of Compounds, Streptococcus pneumoniae: agar dilution, PISP ATCC 49619; for activity against streptococcus pneumoniae relative to vancomycin: compared with positive control vancomycin
Excerpt: as §1, §2, §3, §4, §5

SMILES	MIC Values of Compounds, Enterococci [1] [µg/mL]	MIC Values of Compounds, Streptococcus pneumoniae [2] [µg/mL]	MIC ([1]; read-out: MIC Values of Compounds, Enterococci) [µg/mL]	MIC ([2]; Streptococcus pneumoniae, ATCC49619, read-out: MIC Values of Compounds, Streptococcus pneumoniae) [µg/mL]	activity against streptococcus pneumoniae relative to vancomycin [2]
CCN(CC)Cc1c(O)cc2c(c1O)-c1cc(ccc1O)C1NC(=O)C3NC(=O)C(CC(N)=O)NC(=O)C(NC(=O)C(CC(C)C)NC)C(O)c4ccc(c(Cl)c4)Oc4cc3cc(c4OC3OC(CO)C(O)C(O)C3OC3CC(C)(NCc4ccc(Br)cc4)C(O)C(C)O3)Oc3ccc(cc3Cl)C(OC3CC(C)(N)C(O)C(C)O3)C(NC1=O)C(=O)NC2C(=O)O (centres unmarked) [Compound I10]	2	0.25	–	–	–
CCCCNCc1c(O)cc2c(c1O)-c1cc(ccc1O)C1NC(=O)C3NC(=O)C(CC(N)=O)NC(=O)C(N4CN(C)C(CC(C)C)C4=O)C(O)c4ccc(c(Cl)c4)Oc4cc3cc(c4OC3OC(CO)C(O)C(O)C3OC3CC(C)(NCc4ccccc4Br)C(O)C(C)O3)Oc3ccc(cc3Cl)C(OC3CC(C)(N)C(O)C(C)O3)C(NC1=O)C(=O)NC2C(=O)O (centres unmarked) [II3]	2	0.25	–	–	–
CNC(CC(C)C)C(=O)NC1C(=O)NC(CC(N)=O)C(=O)NC2C(=O)NC3C(=O)NC(C(=O)NC(C(=O)O)c4cc(O)c(CN5CCOCC5)c(O)c4-c4cc3ccc4O)C(OC3CC(C)(N)C(O)C(C)O3)c3ccc(c(Cl)c3)Oc3cc2cc(c3OC2OC(CO)C(O)C(O)C2OC2CC(C)(NCc3ccccc3Br)C(O)C(C)O2)Oc2ccc(cc2Cl)C1O (centres unmarked) [Compound I5]	0.25	0.125	–	–	–
CCCCNCc1c(O)cc2c(c1O)-c1cc(ccc1O)C1NC(=O)C3NC(=O)C(CC(N)=O)NC(=O)C(N4CN(C)C(CC(C)C)C4=O)C(O)c4ccc(c(Cl)c4)Oc4cc3cc(c4OC3OC(CO)C(O)C(O)C3OC3CC(C)(NCc4cccc(Br)c4)C(O)C(C)O3)Oc3ccc(cc3Cl)C(OC3CC(C)(N)C(O)C(C)O3)C(NC1=O)C(=O)NC2C(=O)O (centres unmarked) [II5]	1	0.25	–	–	–
CN[C@H](CC(C)C)C(=O)N[C@H]1C(=O)N[C@@H](CC(N)=O)C(=O)N[C@H]2C(=O)N[C@H]3C(=O)N[C@H](C(=O)N[C@H](C(=O)O)c4cc(O)cc(O)c4-c4cc3ccc4O)[C@H](O)c3ccc(c(Cl)c3)Oc3cc2cc(c3O[C@@H]2O[C@H](CO)[C@@H](O)[C@H](O)[C@H]2O[C@H]2C[C@](C)(N)[C@H](O)[C@H](C)O2)Oc2ccc(cc2Cl)[C@H]1O [vancomycin hydrochloride, reference compound]	–	–	0.25	0.125	–
CCCCNCc1c(O)cc2c(c1O)-c1cc(ccc1O)C1NC(=O)C3NC(=O)C(CC(N)=O)NC(=O)C(NC(=O)C(CC(C)C)NC)C(O)c4ccc(c(Cl)c4)Oc4cc3cc(c4OC3OC(CO)C(O)C(O)C3OC3CC(C)(NCc4ccc(C(C)C)cc4)C(O)C(C)O3)Oc3ccc(cc3Cl)C(OC3CC(C)(N)C(O)C(C)O3)C(NC1=O)C(=O)NC2C(=O)O (centres unmarked) [Compound I14]	0.5	≤0.031	–	–	more four times than vancomycin
CNC(CC(C)C)C(=O)NC1C(=O)NC(CC(N)=O)C(=O)NC2C(=O)NC3C(=O)NC(C(=O)NC(C(=O)O)c4cc(O)c(CN5CCOCC5)c(O)c4-c4cc3ccc4O)C(OC3CC(C)(N)C(O)C(C)O3)c3ccc(c(Cl)c3)Oc3cc2cc(c3OC2OC(CO)C(O)C(O)C2OC2CC(C)(NCc3ccc(C(C)C)cc3)C(O)C(C)O2)Oc2ccc(cc2Cl)C1O (centres unmarked) [Compound I13]	1	0.25	–	–	–
CNC(CC(C)C)C(=O)NC1C(=O)NC(CC(N)=O)C(=O)NC2C(=O)NC3C(=O)NC(C(=O)NC(C(=O)O)c4cc(O)c(CN5CCOCC5)c(O)c4-c4cc3ccc4O)C(OC3CC(C)(N)C(O)C(C)O3)c3ccc(c(Cl)c3)Oc3cc2cc(c3OC2OC(CO)C(O)C(O)C2OC2CC(C)(NCc3cccc(Br)c3)C(O)C(C)O2)Oc2ccc(cc2Cl)C1O (centres unmarked) [Compound I8]	0.25	0.063	–	–	–
CCCCCCCCCCNC1(C)CC(OC2c3ccc(c(Cl)c3)Oc3cc4cc(c3OC3OC(CO)C(O)C(O)C3OC3CC(C)(NCCCCCCCCCC)C(O)C(C)O3)Oc3ccc(cc3Cl)C(O)C(NC(=O)C(CC(C)C)N(C)CCCCCCCCCC)C(=O)NC(CC(N)=O)C(=O)NC4C(=O)NC3C(=O)NC2C(=O)NC(C(=O)O)c2cc(O)c(CNCCCC)c(O)c2-c2cc3ccc2O)OC(C)C1O (centres unmarked) [Compound I4]	>8	>8	–	–	–
CCN(CC)Cc1c(O)cc2c(c1O)-c1cc(ccc1O)C1NC(=O)C3NC(=O)C(CC(N)=O)NC(=O)C(N4CN(C)C(CC(C)C)C4=O)C(O)c4ccc(c(Cl)c4)Oc4cc3cc(c4OC3OC(CO)C(O)C(O)C3OC3CC(C)(NCc4ccc(OC)cc4)C(O)C(C)O3)Oc3ccc(cc3Cl)C(OC3CC(C)(N)C(O)C(C)O3)C(NC1=O)C(=O)NC2C(=O)O (centres unmarked) [II8]	1	0.25	–	–	–
CCN(CC)Cc1c(O)cc2c(c1O)-c1cc(ccc1O)C1NC(=O)C3NC(=O)C(CC(N)=O)NC(=O)C(NC(=O)C(CC(C)C)NC)C(O)c4ccc(c(Cl)c4)Oc4cc3cc(c4OC3OC(CO)C(O)C(O)C3OC3CC(C)(NCc4ccccc4Br)C(O)C(C)O3)Oc3ccc(cc3Cl)C(OC3CC(C)(N)C(O)C(C)O3)C(NC1=O)C(=O)NC2C(=O)O (centres unmarked) [Compound I6]	1	0.25	–	–	–
CC(C)CC1C(=O)N(C2C(=O)NC(CC(N)=O)C(=O)NC3C(=O)NC4C(=O)NC(C(=O)NC(C(=O)O)c5cc(O)c(CN6CCOCC6)c(O)c5-c5cc4ccc5O)C(OC4CC(C)(N)C(O)C(C)O4)c4ccc(c(Cl)c4)Oc4cc3cc(c4OC3OC(CO)C(O)C(O)C3OC3CC(C)(NCc4cccc(Br)c4)C(O)C(C)O3)Oc3ccc(cc3Cl)C2O)CN1C (centres unmarked) [II6]	2	0.25	–	–	–
CNC(CC(C)C)C(=O)NC1C(=O)NC(CC(N)=O)C(=O)NC2C(=O)NC3C(=O)NC(C(=O)NC(C(=O)O)c4cc(O)c(CN5CCOCC5)c(O)c4-c4cc3ccc4O)C(OC3CC(C)(N)C(O)C(C)O3)c3ccc(c(Cl)c3)Oc3cc2cc(c3OC2OC(CO)C(O)C(O)C2OC2CC(C)(NCc3ccc(Br)cc3)C(O)C(C)O2)Oc2ccc(cc2Cl)C1O (centres unmarked) [Compound I9]	0.25	≤0.031	–	–	more four times than vancomycin
CNC(CC(C)C)C(=O)NC1C(=O)NC(CC(N)=O)C(=O)NC2C(=O)NC3C(=O)NC(C(=O)NC(C(=O)O)c4cc(O)c(CN5CCOCC5)c(O)c4-c4cc3ccc4O)C(OC3CC(C)(N)C(O)C(C)O3)c3ccc(c(Cl)c3)Oc3cc2cc(c3OC2OC(CO)C(O)C(O)C2OC2CC(C)(N)C(O)C(C)O2)Oc2ccc(cc2Cl)C1O (centres unmarked) [Compound I2]	0.5	0.063	–	–	–
CCN(CC)Cc1c(O)cc2c(c1O)-c1cc(ccc1O)C1NC(=O)C3NC(=O)C(CC(N)=O)NC(=O)C(N4CN(C)C(CC(C)C)C4=O)C(O)c4ccc(c(Cl)c4)Oc4cc3cc(c4OC3OC(CO)C(O)C(O)C3OC3CC(C)(NCc4ccc(Br)cc4)C(O)C(C)O3)Oc3ccc(cc3Cl)C(OC3CC(C)(N)C(O)C(C)O3)C(NC1=O)C(=O)NC2C(=O)O (centres unmarked) [II7]	1	0.25	–	–	–
